Columns and labels:
Format in all cases: in vivo
[1] = system: induced type 2 diabetic mice; test: Aspartate aminotransferase (AST) assay
Experimental: (§1) Male ICR mice (19-21 g) were obtained from BioLASCO Taiwan Co., Ltd. The mice were kept in the animal center of Transworld University at a controlled temperature of 22±2° C., relative humidity 55±5%, and with 12 hour light/12 hour dark cycles for 1 week before the experiment. For the induction of type 2 diabetic mice (induction treatment group STZ), Nicotinamide (210 mg/kg b.w.) (Sigma, Saint Louis, Mo., USA), dissolved in saline was intraperitoneally injected into mice. After 15 minutes, the mice were administered with […] (STZ) (Sigma, 180 mg/kg bw, ip injection), which was dissolved in citrate buffer (pH 4.5) before use. The control group received both vehicles. During the experimental period, the animals' food intake and body weight were monitored once a week. In addition, the dosage of the Neoandrographolide (Sigma-Aldrich Chemical Co., Missouri, USA) of the present invention is: NeoL (low dose group of Neoandrographolide): Neoandrographolide 2.5 mg/kg; NeoM (middle dose group of Neoandrographolide): Neoandrographolide 5.0 mg/kg; NeoH (high dose group of Neoandrographolide): Neoandrographolide 10 mg/kg. The above active ingredient was dissolved in Tween 20 and adjusted to a 0.5% methylcellulose (CMC) solution. The blank group (Sham) was normal mice without induction treatment.
(§2) After completion of the test, surviving animals were sacrificed; before necropsy, blood samples were collected for serum biochemistry.
(§3) In this experimental example, the AST index of mice were recorded in a 42-day period after continuous administration for the blank group Sham, the induction treatment group STZ, Neoandrographolide low dose group NeoL (2.5 mg/kg), Neoandrographolide middle dose group NeoM (5.0 mg/kg) and Neoandrographolide high dose group NeoH (10 mg/kg).

[2] = system: induced type 2 diabetic mice; test: Fasting blood glucose assay; conditions: NeoL 2.5, NeoM 5.0, NeoH 10 mg/kg; seven days after administration; vs induction treatment group STZ
Experimental: (§4) Male ICR mice (19-21 g) were obtained from BioLASCO Taiwan Co., Ltd. The mice were kept in the animal center of Transworld University at a controlled temperature of 22±2° C., relative humidity 55±5%, and with 12 hour light/12 hour dark cycles for 1 week before the experiment. For the induction of type 2 diabetic mice (induction treatment group STZ), Nicotinamide (210 mg/kg b.w.) (Sigma, Saint Louis, Mo., USA), dissolved in saline was intraperitoneally injected into mice. After 15 minutes, the mice were administered with […] (STZ) (Sigma, 180 mg/kg bw, ip injection), which was dissolved in citrate buffer (pH 4.5) before use. The control group received both vehicles. During the experimental period, the animals' food intake and body weight were monitored once a week. […]
as §3, with “fasting blood glucose values” for “AST index of mice”, “period” for “period after continuous administration”

[3] = system: induced type 2 diabetic mice; test: Glycated hemoglobin (HbA1c) assay; conditions: NeoL 2.5, NeoM 5.0, NeoH 10 mg/kg; after 42 days of continuous administration; vs induction treatment group STZ
Experimental: as §4
as §3, with “glycated hemoglobin (HbA1c) values” for “AST index”

[4] = system: induced type 2 diabetic mice; test: Serum creatinine assay; conditions: NeoL 2.5, NeoM 5.0, NeoH 10 mg/kg; after 42 days of continuous administration; vs induction treatment group STZ
Experimental: as §4
as §3, with “serum creatine” for “AST”, “was” for “were”

[5] = system: induced type 2 diabetic mice; test: Uric acid assay; conditions: NeoL 2.5, NeoM 5.0, NeoH 10 mg/kg; after 42 days of continuous administration; vs induction treatment group STZ
Experimental: as §4
as §3, with “serum uric acid” for “AST”, “was” for “were”

[6] = system: induced type 2 diabetic mice; test: Water intake test in induced type 2 diabetic mice; conditions: high dose 10 mg/kg and low dose 2.5 mg/kg; 40-day period; vs induction treatment group STZ
Experimental: as §4
In general, diabetic patients usually have clinical symptoms of “drinking more water.” In this experimental example, the water intake was recorded in a 40-day period for the blank group Sham, the induction treatment group STZ, Neoandrographolide low dose group NeoL (2.5 mg/kg), Neoandrographolide middle dose group NeoM (5.0 mg/kg) and Neoandrographolide high dose group NeoH (10 mg/kg).

[7] = system: induced type 2 diabetic mice; test: Triglyceride assay
Experimental: as §1, §2
as §3, with “triglyceride values and the total cholesterol in blood” for “AST index”

[8] = system: induced type 2 diabetic mice; test: Oral glucose tolerance test; conditions: NeoL 2.5, NeoM 5.0, NeoH 10 mg/kg; within 0 to 3 hours after glucose 2 g/kg; vs induction treatment group STZ
Experimental: as §1, with “treatment. […]” for “treatment.”

[9] = system: induced type 2 diabetic mice; test: Total cholesterol assay
Experimental: as §4
as §3, with “triglyceride values and the total cholesterol in blood” for “AST index”

[10] = NeoL 2.5, NeoM 5.0, NeoH 10 mg/kg, after 42 days of continuous administration, vs induction treatment group STZ

**Q.** `C=C1CC[C@@H]2[C@](C)(CO[C@@H]3O[C@H](CO)[C@@H](O)[C@H](O)[C@H]3O)CCC[C@@]2(C)[C@@H]1CCC1=CCOC1=O` [Neoandrographolide] was tested. Which “AST values, low dose group” value ([1]; NeoL 2.5 mg/kg, 42 days, compared among the three dose groups) did it give?
**A.** most significant reduction

**Q.** And the AST index [1, 10]?
**A.** slightly lower

**Q.** What about the “minimum effective dose, improving liver function (AST)” value ([1]; judged from the experiment) of the same compound?
**A.** around 2.5 mg/kg

**Q.** What about the “fasting blood glucose values” [2] of the same compound?
**A.** significantly lower

**Q.** And the HbA1c values [3]?
**A.** significantly lower

**Q.** What about the serum creatinine index [4] of the same compound?
**A.** significantly lower

**Q.** What about the “serum uric acid index” value [5] of the same compound?
**A.** significantly lower

**Q.** What about the “amount of water intake” value [6] of the same compound?
**A.** significantly reduced

**Q.** And the “dose dependence of triglyceride-lowering effect” value ([7]; 2.5 to 10 mg/kg, 42 days)?
**A.** dose-dependent

**Q.** What about the “minimum effective dose, triglyceride-lowering effect” value ([7]; 42 days) of the same compound?
**A.** 2.5 mg/kg

**Q.** And the triglyceride values [7, 10]?
**A.** lower

**Q.** What about the “triglyceride values, middle and high dose groups” value ([7]; NeoM 5.0 mg/kg and NeoH 10 mg/kg, 42 days, compared among the three dose groups) of the same compound?
**A.** lowest triglyceride values

**Q.** What about the “blood glucose levels in oral glucose tolerance test” value [8] of the same compound?
**A.** significantly lower

**Q.** And the “minimum effective dose, lowering total cholesterol in the blood” value ([9]; 42 days)?
**A.** 2.5 mg/kg

**Q.** And the “total cholesterol values in the blood” value [9, 10]?
**A.** lower
